Source: patent US12168673B2 (Mitopower, Inc., priority 2022, dated 2024)
Like-named read-outs stand apart in the source and are kept apart here.

How the values were obtained:
[1] = Kinetic solubility; assay type: physicochemical; conditions: aqueous buffer, kinetic from dmso stock, 0.1 M phosphate buffered saline pH 7.4, target 100 μM, 1.5 h
Experimental: The target compound concentration was 100 μM (kinetic), the assay buffer was 0.1 M phosphate buffered saline pH 7.4, the mixing period was 1.5 h (kinetic). The sample was prepared by centrifugation or filtration and the detection method used was HPLC with UV-vis spectrometry.

[2] = Caco-2 permeability assay; conditions: human
Excerpt: The endpoint measured is the intestinal permeability expressed as apparent permeability—Papp value. All permeability values are represented as ×10^−6 cm/sec.

[3] = test system: Jurkat Cells; assay: Cellular NAD+ levels in Jurkat cells (LCMS/MS); assay type: cell-based; conditions: 30 μM, four hours of incubation
Experimental: Compounds 100, 101 and 102 were weighted out to prepare 60 μM stock solutions in RPMI media. 200 ng/mL solution of Rac-tenofovir d6 (Vivan Life-Sciences) was prepared in methanol (MeOH) and placed at −20° C. until use.
Jurkat Cells, sourced from NCCS Pune, were cultured in RPMI media containing FBS & Antibiotics. Cells from different flasks (90% confluent) were pooled into a 15 mL conical tube and centrifuged for 5 mins at 1200 rpm for 5 mins. The supernatant solution was discarded, and the pellet was washed with 5 mL sterile PBS (without Ca^2+ & Mg^2+). The tube was then centrifuged at 1200 rpm for 5 mins and the supernatant was discarded. The cell pellet was resuspended in 7 mL of RPMI media, and a cell count was done using 10 uL of the cell solution. 1.5 million cells from the cell solution were seeded into 1.5 mL microcentrifuge tubes. […] The tubes were placed in racks and gently swirled to mix the compounds into the media containing the cells. These tubes were then incubated for 4 hours in a 37° C. incubator at 5% CO2. After 4 hours of incubation the cells were spun down at 1000 rpm for 10 mins, the supernatant was discarded carefully, and cells were snap frozen in liquid nitrogen. When the samples were run, the extraction of the cells was on ice, cells were lysed using 20 uL deionized water and then ice cold 80% methanol containing the internal standard—Rac-Tenofovir D was added. The tubes were then vortexed at 2500 rpm for 8 minutes and then centrifuged at […] for 10 minutes. 150 uL of the supernatant was carefully transferred to HPLC vials and was analyzed for NAD^+ on the Abscised 4000 Q Trap LCMS/MS system. A C18, 3.5 μm, 2.1×100 mm, Bridge Column was used in the LC. The mobile phase consisted of 10 mM ammonium acetate with 0.1% acetic acid and 0.1% hexylamine as Solvent-A and 10 mM Ammonium acetate with 0.1% acetic acid and 0.1% hexylamine in 95/5 MeOH/H2O as Solvent-B. The gradient used was 0 mins-0.0% B, 0.5 mins-100% B, 1.5 mins-100% B, 3.0 mins-100% B, 3.1 mins-0.0% B, 7.0-STOP. The column flow rate was 0.5 mL/min. The sample injection volume was […].

[4] = test system: Huh-7 Cells; assay: Cellular NAD+ levels in Huh-7 cells (LCMS/MS); assay type: cell-based; conditions: 125 μm, four hours of incubation
Experimental: Huh-7 Cells, sourced from NCCS Pune, were cultured in RPMI media containing FBS & Antibiotics. Cells from different flasks (80-90% confluent) were pooled into a 15 mL conical tube and centrifuged for 5 mins at 1200 rpm for 5 mins. The supernatant solution was discarded, and the pellet was washed with 5 mL sterile PBS (without Ca^2+ and Mg^2+). The tube was then centrifuged at 1200 rpm for 5 mins and the supernatant was discarded. The cell pellet was resuspended in 7 mL of RPMI media, and a cell count was done using 10 uL of the cell solution. 1.5 million cells from the cell solution were seeded into 1.5 mL microcentrifuge tubes. […] The tubes were placed in racks and gently swirled to mix the compounds into the media containing the cells. These tubes were then incubated for 4 hours in a 37° C. incubator at 5% CO2. After 4 hours of incubation the cells were spun down at 1000 rpm for 10 mins, the supernatant was discarded carefully, and cells were snap frozen in liquid nitrogen. When the samples were run, the extraction of the cells was on ice, cells were lysed using 20 uL deionized water and then ice cold 80% methanol containing the internal standard—Rac-Tenofovir D was added. The tubes were then vortexed at 2500 rpm for 8 minutes and then centrifuged at […] for 10 minutes. 150 uL of the supernatant was carefully transferred to HPLC vials and was analyzed for NAD^+ on the Abscised 4000 Q Trap LCMS/MS system. A C18, 3.5 μm, 2.1×100 mm, Bridge Column was used in the LC. The mobile phase consisted of 10 mM ammonium acetate with 0.1% acetic acid & 0.1% hexylamine as Solvent-A and 10 mM Ammonium acetate with 0.1% acetic acid and 0.1% hexylamine in 95/5 MeOH/H2O as Solvent-B. The gradient used was 0 mins-0.0% B, 0.5 mins-100% B, 1.5 mins-100% B, 3.0 mins-100% B, 3.1 mins-0.0% B, 7.0-STOP. The column flow rate was 0.5 mL/min. The sample injection volume was […].

[5] = PK study in rats (plasma); assay type: in vivo; conditions: for half-life: read-out: T1/2 (converted); for AUC(0-t): read-out: AUC0-1
[6] = Human hepatocyte clearance; assay type: in vitro ADME; conditions: human hepatocytes, 1 μM
Experimental: (§1) A hepatocyte vial was taken out from the liquid nitrogen tank and was thawed in a water bath maintained at 37° C. The thawed cell suspension was transferred into a torsion tube containing 50 mL of thawing media (Xenotech). The thawing media containing hepatocytes was centrifuged at 1000 rpm for 5 min, the supernatant was discarded and the pellet was resuspended in 2 ml of Xenotech OptiIncubate Media. The cells were counted by using a haemocytometer after mixing an aliquot of cell suspension with equal volume of trypan blue. The cell suspension was diluted to a working density of 2 million cells with DMEM media without FBS/incubation media.
(§2) The assay was performed in duplicates (n=2). 150 μL of 2 million cell working stock of hepatocyte cell suspension was added to a 24 well plate and incubated in a 37° C. incubator, with speed of 500 RPM for 10 min. 150 μL of 2 μM working stock of test compound was incubated separately. The reaction at 0, 15, 30, 60 and 90 min was stopped by precipitating 20 μL of incubation mixture with 200 μL of acetonitrile containing internal standard. […] The supernatant was separated and diluted 1:1 with water before injecting in LC-MS/MS analysis.

[7] = test system: human hepatocytes; assay: Human hepatocyte clearance; assay type: in vitro ADME
Experimental: as §1, §2

[8] = test system: human hepatocytes; assay: Human hepatocyte stability
Experimental: (§7) 10 mM stock solution of test compound was prepared in DMSO and diluted to a concentration of 1 mM with DMSO. Working concentration of 2 μM was prepared by further dilution with PBS. Preincubation mixture of 150 μL of hepatocyte cell suspension (1,000,000 cells/mL, INVITROGRO HT medium buffer), was added to vials for preincubation for 10 min @37° C.
(§8) 150 μL of 2 μM working stock of the test compound was added to the cell suspension and incubated at @37 C at 500 rpm. The reaction was stopped at 0, 15, 30, 60 and 90 min by precipitating 50 μL of the incubation mixture with 150 μL of acetonitrile. Samples were vortexed for 5 min at 1200 rpm and centrifuged at 4000 rpm for 10 min. 150 μL of the supernatant was diluted with 150 μL of water and injected in MS system (SCIEX, API 4500 Q Trap) for analysis.

[9] = in vitro; conditions: human, plasma
Experimental: (§3) The test compounds were weighed and prepared as 10 mM stocks in 100% DMSO. 10 μM is the final test concentration for all compounds.
(§4) The samples were prepared by spiking test compound(s) in plasma at 10 μM final concentration. 200 μL of plasma containing the test compound was added into the donor well (RED Chamber) of the insert. Simultaneously 350 μL of dialysis buffer (1×PBS) was added into the receiver well (white chamber). Two measurements were made for each test compound. The plate was covered with a sealer and incubated at 37° C. degrees on an orbital shaker at 500 rpm for 5 hours.
(§5) After incubation, 25 μl of plasma (RED chamber) and 25 μl of buffer (white chamber) samples were separately collected into separate centrifugation tubes. Plasma and buffer samples were precipitated with 200 μL of 100% acetonitrile containing internal standards. 25 μl of T0 (T Zero) plasma samples (samples before 5 hours incubation) were collected (To samples were processed immediately after the preparation of plasma working stock solution. These samples serve as a measure for calculating the percentage recovery of the test compound and precipitated using 100% acetonitrile containing internal standards). The samples were vortexed at 1000 rpm for 5 min and centrifuged at 4000 rpm for 10 min. The supernatant was diluted 2-fold with water and injected into LC-MS/MS.
(§6) The % of Plasma bound/unbound fraction was calculated by the following equation: % Unbound or % free=100*(Fc/Tc); % Recovery=100 (Fc+Tc)/[…] where Tc=Total compound concentration as determined by the calculated concentration on the plasma side of the membrane (concentration in plasma chamber), Fc=Free compound concentration as determined by the calculated concentration on the buffer side of the membrane (concentration in buffer chamber) and T0=Total compound concentration as determined before dialysis.

[10] = test system: Human Plasma Protein; assay: in vitro
Experimental: as §3, §4, §5, §6

[11] = test system: human hepatocytes; conditions: 1 μM
Experimental: as §7, §8

[12] = read-out: Mean Solubility (μg/mL)

CCCSc1ccc2nc(NC(=O)OC)[nH]c2c1 [Albendazole, reference compound]
solubility at 1.5 h ([1]; read-out: Mean Solubility): 0.66 µM | solubility at 1.5 h [1, 12]: 0.2 µg/mL

NC(=O)N1c2ccccc2C=Cc2ccccc21 [Carbamazepine, reference compound]
Papp A→B [2]: 222 nm/s | Papp B→A [2]: 234 nm/s | efflux ratio [2]: 1.1 | recovery ([2]; Caco-2, % Recovery A to B): 89.3% | recovery ([2]; Caco-2, % Recovery B to A): 91%

O=c1[nH]c2ccccc2n1CCCN1CCC(n2c(=O)[nH]c3cc(Cl)ccc32)CC1 [Domperidone, reference compound]
Papp A→B [2]: 39 nm/s | Papp B→A [2]: 203 nm/s | efflux ratio [2]: 5.2 | recovery ([2]; Caco-2, % Recovery A to B): 61.8% | recovery ([2]; Caco-2, % Recovery B to A): 76.4%

CC(C(=O)O)c1ccc(-c2ccccc2)c(F)c1 (stereo not shown) [Flurbiprofen, reference compound]
solubility at 1.5 h ([1]; read-out: Mean Solubility): 111 µM | solubility at 1.5 h [1, 12]: 27 µg/mL

O=C(O)c1cccnc1 [Nicotinic acid]
NAD+ level increase compared to untreated cells [3]: showed statistical significance in terms of NAD^+ level increases | NAD+ level increase compared to untreated cells [4]: showed an increase | Cmax ([5]; rat, plasma, iv, 40 mg/kg): 1240 ± 833 µM | Tmax ([5]; rat, plasma, iv, 40 mg/kg): 15 min | clearance ([5]; rat, plasma, iv, 40 mg/kg): 0.304 L/h/kg | half-life ([5]; rat, plasma, iv, 40 mg/kg, rats, Group 4: nicotinic acid 40 mg/kg IV): 26.9 ± 16.6 min | AUC(0-t) ([5]; rat, plasma, iv, 40 mg/kg): 1080 ± 426 µM·h | Vd ([5]; rat, plasma, iv, 40 mg/kg, read-out: Vss): 0.211 ± 0.156 L/kg | Cmax ([5]; rat, plasma, po, 200 mg/kg): 519 ± 83.3 µM | Tmax ([5]; rat, plasma, po, 200 mg/kg): 79.8 ± 34.8 min | bioavailability ([5]; rat, plasma, po, 200 mg/kg): 29% | half-life ([5]; rat, plasma, po, 200 mg/kg, rats, Group 3: nicotinic acid 200 mg/kg PO): 85.2 ± 25.8 min | AUC(0-t) ([5]; rat, plasma, po, 200 mg/kg): 1680 ± 305 µM·h | IV pharmacokinetics profile (in words) ([5]; rats, IV): No distribution phase

C[C@]12CC[C@H]3[C@@H](CCC4=CC(=O)CC[C@@]43C)[C@@H]1CC[C@@H]2O [Testosterone, reference compound]
half-life at 1 μM ([6]; 0-90 min, read-out: T½): 9.14 min | hepatocyte CLint at 1 μM ([6]; read-out: Intrinsic Clearance (CL Int)): 75.8 µL/min/1e6 cells | Remarks (clearance class) [7]: High* | % Parent Remaining ([8]; 0 mins): 100% | % Parent Remaining ([8]; 15 mins): 28% | % Parent Remaining ([8]; 30 mins): 11% | % Parent Remaining ([8]; 60 mins): 3% | % Parent Remaining ([8]; 90 mins): 1%

CC(=O)CC(c1ccccc1)c1c(O)c2ccccc2oc1=O (stereo not shown) [Warfarin, reference compound]
Remarks (clearance class) [7]: Low* | fraction unbound at 5 h, 10 μM ([9]; % Bound in plasma): 0.0044 | fraction unbound at 5 h, 10 μM ([9]; % Unbound in plasma): 0.0054 | fraction unbound at 5 h, 10 μM ([9]; Fraction unbound): 0.005 | Remarks (binding class) [10]: High binding | % Parent Remaining ([11]; 0 h): 100% | % Parent Remaining ([11]; 0.25 h): 91% | % Parent Remaining ([11]; 0.5 h): 89% | % Parent Remaining ([11]; 1 h): 96% | % Parent Remaining ([11]; 1.5 h): 96%
